In patent US20030040644A1, “Synthesis of nitroalcohol diastereomers” (Pharm-Eco Laboratories, Inc., priority 1999, published 2003):
“And” between values parts separate entries of the source, which are not always exact repeats. Identical values can stand only once.

Assay: Solubility of the diastereomers in several solvent systems (mobile phases)
Assay type: physicochemical
Experimental: In order to have a concentrated sample for loading on the simulated moving bed separation system, a high degree of solubility in the mobile phase to be used for the separation is desirable. Therefore, the solubility of the 1-nitro-3-benzyl-3-(N-ethoxycarbonyl)amino-2-propanol diastereomers in several solvent systems was determined.

Question: Which “% Solubility” value (mobile phase 10% ethyl acetate/90% methylene chloride) does the source give for CCOC(=O)NC(Cc1ccccc1)C(O)C[N+](=O)[O-] (single isomer, unassigned) [1-nitro-3-benzyl-3-benzyl-3-(N-ethoxycarbonyl)amino-2-propanol diastereomers, 1-nitro-3-benzyl-3-(N-ethoxycarbonyl)amino-2-propanol] here?
Answer: The value was 3.8%.

Question: What about the “% Solubility” value (mobile phase 40% water/60% methanol) of the same compound?
Answer: The value was 1.7%.

Question: What about the “% Solubility” value (mobile phase 50% heptane/50% THF) of the same compound?
Answer: The value was 20%.

Question: And the “% Solubility” value (mobile phase 50% heptane/50% ethyl acetate)?
Answer: Its value is 3.81%.

Question: What about the “% Solubility” value (mobile phase 50% methanol/50% THF) of the same compound?
Answer: The value was 78%.

Question: And the “% Solubility” value (mobile phase 60% water/40% acetonitrile)?
Answer: Its value is 3.29%.

Question: And the “% Solubility” value (mobile phase 70% heptane/30% THF)?
Answer: Its value is 4%.

Question: What about the “% Solubility” value (mobile phase 70% heptane/30% ethanol) of the same compound?
Answer: The value was 20%.

Question: And the “% Solubility” value (mobile phase 70% heptane/30% ethyl acetate)?
Answer: Its value is 1.11% and 1.09% and 1.31%.

Question: And the “% Solubility” value (mobile phase 70% heptane/30% isopropanol)?
Answer: Its value is 0.36%.

Question: And the “% Solubility” value (mobile phase 80% heptane/20% ethanol)?
Answer: The value was 0.31% and 1.86%.

Question: What about the “% Solubility” value (mobile phase 80% toluene/20% THF) of the same compound?
Answer: Its value is 6%.

Question: And the “% Solubility” value (mobile phase 100% methanol)?
Answer: The value was 40%.
